# Columns and labels:
# Human OX2 receptor [1] = target: T1, Human OX2 receptor (Homo sapiens (Human), UniProt O43614); assay: [3H]-radioligand binding assay, OX2; settings: for pKi average OX2: competition binding, membranes of SF21 cells, Ki by Cheng-Prusoff
# Description: (§1) Cloning, Baculovirus generation, large-scale infection of SF21 cells and membrane preparation. Human OX1 or OX2 receptor were cloned into Invitrogen's (ThermoFisher Scientific, UK) Bac-to-Bac Baculovirus Expression System. P0 baculovirus was generated by transfecting SF9 cells with bacmid DNA using Cellfectin® II transfection reagent (ThermoFisher Scientific, UK, Catalog number 10362-100). Following P0 generation P1 virus was then generated ready for large scale infection and membrane preparation. SF21 cells were grown in expression medium ESF921 (Expression Systems, USA, catalog number 96-001-01) supplemented with 10% heat-inactivated FBS and 1% Pen/Strep and were infected at a cell density of 2.5×10^6 cells/mL and a multiplicity of infection of 1.0 for both human OX1R and OX2R. Incubation was carried out at over 48 h in a shaking incubator set at 27° C. The cell culture was then centrifuged at 2,500 rcf for 10 min at 4° C. The pellets were resuspended in cold PBS supplemented with Roche's Complete EDTA-free protease inhibitor cocktail tablets (Roche Applied Sciences, catalog number 05056489001), 1 mM PMSF and 1 mM EDTA. The resuspended cell paste was then centrifuged at 3,273 rcf for 12 min at 4° C. The supernatant was discarded and the pellet frozen at −80° C. The cell pellet from a 4 L culture was resuspended in buffer containing 50 mM HEPES pH 7.5, 150 mM NaCl, 8 Roche EDTA-Free protease inhibitor cocktail tablets and 1 mM PMSF. The suspension was left stirring at rt for 1 h and then homogenised for 90 s at 9,500 rpm using a VDI 25 (VWR, USA) homogeniser. The cells were then lysed using a Microfluidiser processor M-110L Pneumatic (Microfluidics, USA) at 60 PSI and membranes collected by ultracentrifugation at 204.7 k×g for 1 h. The supernatant was discarded and the pellet was resuspended and homogenised in 90 s at 9,500 rpm in 50 mL (25 mL for each 2 L culture) of buffer containing 50 mM Hepes pH 7.5, 150 mM NaCl, 3 Roche EDTA-free protease inhibitor cocktail tablets and 1 mM PMSF. The resulting membranes were then stored at −80° C.
# (§2) [^3H]-radioligand binding assay. After thawing, membrane homogenates were resuspended in the binding buffer (8.5 mM HEPES, pH 7.4, 1.3 mM CaCl2, 1.2 mM MgSO4, 118 mM NaCl, 4.7 mM KCl, 4 mM NaHCO3, 1.2 mM KH2PO4, 11 mM glucose) to a final assay concentration of 6.4 μg (OX1) or 1.4 μg (OX2) protein per well. Saturation isotherms were determined by the addition of various concentrations (0-30 nM) of [^3H]-4-(2,6-difluoro-4-methoxybenzyl)-2-(5,6-dimethoxypyridin-3-yl)-2H-1,2,4-benzothiadiazin-3(4H)-one 1,1-dioxide (Christopher et al, MedChemComm., 2015, 6, 947-955) in a total reaction volume of 250 μL for 90 min at rt. At the end of the incubation, membranes were filtered onto a 96-well GF/B filter pre-incubated with 0.5% polyethylenimine, with a Tomtec cell harvester and washed 5 times with 0.5 mL distilled water. Non-specific binding (NSB) was measured in the presence of 3.33 μM [4-(5-chloro-1,3-benzoxazol-2-yl)-7-methyl-1,4-diazepan-1-yl][5-methyl-2-(2H-1,2,3-triazol-2-yl)phenyl]methanone (Wertz et al, Angew. Chem. Int. Ed., 2011, 50, 11511-11515). Radioactivity on the filter was counted (1 min) on a Microbeta radiometric plate counter (Perkin Elmer) after addition of 50 μL of scintillation fluid (LabLogic: Part #SG-BXX-14). […] IC50 values were derived from the inhibition curve and the equilibrium dissociation constant (Ki) values were calculated using the Cheng-Prusoff equation.
# Human OX2 receptor [2] = target: T1, Human OX2 receptor; assay: IPone accumulation assay, CHO cells expressing OX2; assay type: cell-based; settings: antagonism of orexin A (EC80 40 nM)-induced inositol phosphate turnover, read-out: fpKb average OX2 (converted)
# Protocol: Generation of CHO stable cell lines expressing the human OX1R and OX2R. Stable cell lines for the human OX1R and OX2R receptors were generated through the transfection of CHO cells using the transfection reagent Genejuice (Novagen number 70967) and cDNA coding for either the human OX1R or OX2R. Cells were cultured in Sigma Nutrient Mixture F-12 Ham media (catalog number N6658) supplemented with 10% heat-inactivated FBS. Forty-eight hours after transfection, cells were harvested and placed under geneticin selection by culturing in Sigma Nutrient Mixture F-12 Ham media supplemented with 10% heat-inactivated FBS and geneticin (ThermoFisher Catalog number: 10131035). Selection of the final stable clone for each receptor was made on the basis of receptor expression, assay signal to noise and robustness though increasing passage. Selected clones for the human OX1R and OX2R were then frozen down into liquid nitrogen using Cell Freezing Medium-DMSO (Sigma-Aldrich catalog number: C6164). IPone accumulation assay. A CHO cell line stably expressing either human OX1 or OX2 receptor was used with the IPone HTRF assay kit (CisBio: Part #62[…]) to measure receptor activation. The assay was optimised to measure the ability (potency; fpKb) of antagonists to reduce agonist (orexin A)-induced inositol phosphate turnover. Briefly, cells were plated onto half area 96-well white walled plates at a density of 12,500 cells/well. Sixteen hours post-plating cell growth media was replaced with antagonist concentration-response curve diluted in stimulation buffer (supplied with the kit). Cells were incubated in a humidified incubator (37° C.) for 30 min before an EC80 challenge concentration ( 20 nM (OX1) and 40 nM (OX2)) of orexin A (Tocris catalogue number 1455). After 30 min stimulation in a humidified incubator (37° C.) the assay was terminated by the addition of detection mixture as per manufacturer's instructions. The concentration of compound which reduced orexin-A stimulated turnover of inositol phosphates by 50% (IC50) was calculated by fitting to a four parameter sigmoidal dose response curve. The IC50 values were converted to fpKB values using the orexin A pEC50 value estimated on each plate as well as the challenge concentration interpolated from the orexin A control curve.
# Human OX1 receptor [3] = target: T2, Human OX1 receptor (Homo sapiens (Human), UniProt O43613); assay: IPone accumulation assay, CHO cells expressing OX1; assay type: cell-based; settings: antagonism of orexin A (EC80 ~20 nM)-induced inositol phosphate turnover, read-out: fpKb average OX1 (converted)
# Protocol: Generation of CHO stable cell lines expressing the human OX1R and OX2R. Stable cell lines for the human OX1R and OX2R receptors were generated through the transfection of CHO cells using the transfection reagent Genejuice (Novagen number 70967) and cDNA coding for either the human OX1R or OX2R. Cells were cultured in Sigma Nutrient Mixture F-12 Ham media (catalog number N6658) supplemented with 10% heat-inactivated FBS. Forty-eight hours after transfection, cells were harvested and placed under geneticin selection by culturing in Sigma Nutrient Mixture F-12 Ham media supplemented with 10% heat-inactivated FBS and geneticin (ThermoFisher Catalog number: 10131035). Selection of the final stable clone for each receptor was made on the basis of receptor expression, assay signal to noise and robustness though increasing passage. Selected clones for the human OX1R and OX2R were then frozen down into liquid nitrogen using Cell Freezing Medium-DMSO (Sigma-Aldrich catalog number: C6164).
# IPone accumulation assay. A CHO cell line stably expressing either human OX1 or OX2 receptor was used with the IPone HTRF assay kit (CisBio: Part #62IPAPEJ) to measure receptor activation. The assay was optimised to measure the ability (potency; fpKb) of antagonists to reduce agonist (orexin A)-induced inositol phosphate turnover. Briefly, cells were plated onto half area 96-well white walled plates at a density of 12,500 cells/well. Sixteen hours post-plating cell growth media was replaced with antagonist concentration-response curve diluted in stimulation buffer (supplied with the kit). Cells were incubated in a humidified incubator (37° C.) for 30 min before an EC80 challenge concentration (˜20 nM (OX1) and 40 nM (OX2)) of orexin A (Tocris catalogue number 1455). After 30 min stimulation in a humidified incubator (37° C.) the assay was terminated by the addition of detection mixture as per manufacturer's instructions. The concentration of compound which reduced orexin-A stimulated turnover of inositol phosphates by 50% (IC50) was calculated by fitting to a four parameter sigmoidal dose response curve. The IC50 values were converted to fpKB values using the orexin A pEC50 value estimated on each plate as well as the challenge concentration interpolated from the orexin A control curve.
# Human OX1 receptor [4] = target: T2, Human OX1 receptor; assay: [3H]-radioligand binding assay, OX1; settings: for pKi average OX1: competition binding, membranes of SF21 cells, Ki by Cheng-Prusoff
# Description: as §1, §2
# T1 sequence (O43614 whole entry): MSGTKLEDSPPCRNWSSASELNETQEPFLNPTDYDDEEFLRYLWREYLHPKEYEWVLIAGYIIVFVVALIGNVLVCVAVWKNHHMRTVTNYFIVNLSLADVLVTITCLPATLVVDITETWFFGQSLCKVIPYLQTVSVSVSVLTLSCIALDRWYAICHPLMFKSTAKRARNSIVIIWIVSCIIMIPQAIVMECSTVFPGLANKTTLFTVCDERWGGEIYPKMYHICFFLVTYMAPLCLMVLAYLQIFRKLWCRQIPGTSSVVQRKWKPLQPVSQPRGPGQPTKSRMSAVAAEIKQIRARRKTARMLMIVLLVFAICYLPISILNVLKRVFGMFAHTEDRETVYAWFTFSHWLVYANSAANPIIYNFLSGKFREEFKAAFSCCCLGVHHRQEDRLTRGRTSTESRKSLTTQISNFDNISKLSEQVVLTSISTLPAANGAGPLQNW
# T2 sequence (O43613 whole entry): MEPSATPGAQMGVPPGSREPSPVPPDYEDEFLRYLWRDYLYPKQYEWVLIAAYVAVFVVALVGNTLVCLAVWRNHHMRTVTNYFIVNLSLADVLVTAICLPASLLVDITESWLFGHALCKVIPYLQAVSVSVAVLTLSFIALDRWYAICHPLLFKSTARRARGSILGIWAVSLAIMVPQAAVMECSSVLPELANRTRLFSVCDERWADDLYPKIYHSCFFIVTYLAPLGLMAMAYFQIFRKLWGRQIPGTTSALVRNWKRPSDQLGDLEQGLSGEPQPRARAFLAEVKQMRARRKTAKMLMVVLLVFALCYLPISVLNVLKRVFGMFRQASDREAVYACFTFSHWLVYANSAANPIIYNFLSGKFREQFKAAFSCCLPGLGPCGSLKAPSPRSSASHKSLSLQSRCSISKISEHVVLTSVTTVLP
Kd (Human OX2 receptor [1]; saturation isotherms) [nM],Kd (Human OX1 receptor [4]; saturation isotherms) [nM],SMILES,pKi average OX2 (Human OX2 receptor [1]),Kb (Human OX2 receptor [2]) [nM],Kb (Human OX1 receptor [3]) [nM],pKi average OX1 (Human OX1 receptor [4])
,,"CC(=O)Nc1cc(F)c(-n2nccn2)c(C(=O)N[C@H]2CCC[C@@H]2COc2ccc(F)cc2)c1 [Example 1, 5-acetamido-3-fluoro-N-[(1S,2S)-2-[(4-fluorophenoxy)methyl]cyclopentyl]-2-(triazol-2-yl)benzamide]",7.3,> 63.1,0.794,9.0
,,"CC(=O)Nc1ccc(-c2ncccn2)c(C(=O)N[C@H]2CCC[C@@H]2COc2ccc(F)cc2)c1F [Example 2, 3-acetamido-2-fluoro-N-[(1S,2S)-2-[(4-fluorophenoxy)methyl]cyclopentyl]-6-pyrimidin-2-yl-benzamide]",5.6,> 2510,50.1,7.7
,,"CC(=O)Nc1ccc(-n2nccn2)c(C(=O)N[C@H]2CCC[C@@H]2COc2ccc(F)cc2)n1 [Example 3, 6-acetamido-N-[(1S,2S)-2-[(4-fluorophenoxy)methyl]cyclopentyl]-3-(triazol-2-yl)pyridine-2-carboxamide]",5.4,1260,20,8.3
,,"Nc1ccc(-n2nccn2)c(C(=O)N[C@H]2CCC[C@@H]2COc2ccc(F)cc2)n1 [Example 4, 6-amino-N-[(1S,2S)-2-[(4-fluorophenoxy)methyl]cyclopentyl]-3-(triazol-2-yl)pyridine-2-carboxamide]",5.9,> 1260,10,8.0
,,"CC(=O)Nc1ccc(-n2nccn2)c(C(=O)N(C)[C@H]2CCC[C@@H]2COc2ccc(F)cc2)n1 [Example 5, 6-acetamido-N-[(1S,2S)-2-[(4-fluorophenoxy)methyl]cyclopentyl]-N-methyl-3-(triazol-2-yl)pyridine-2-carboxamide]",6.0,> 1000,3.16,8.5
,,"CC(=O)Nc1ccc(-n2nccn2)c(C(=O)N[C@H]2CCC[C@@H]2COc2ccc(Cl)cc2)n1 [Example 6, 6-acetamido-N-[(1S,2S)-2-[(4-chlorophenoxy)methyl]cyclopentyl]-3-(triazol-2-yl)pyridine-2-carboxamide]",<5.2,> 631,7.94,8.1
,,"CC(=O)Nc1ccc(-n2nccn2)c(C(=O)N(C(C)C)[C@H]2CCC[C@@H]2COc2ccc(F)cc2)n1 [Example 7, 6-acetamido-N-[(1S,2S)-2-[(4-fluorophenoxy)methyl]cyclopentyl]-N-isopropyl-3-(triazol-2-yl)pyridine-2-carboxamide]",<5.3,> 794,25.1,8.1
,,"[2H]C([2H])(Oc1ccc(F)cc1)[C@H]1CCC[C@@H]1NC(=O)c1nc(NC(C)=O)ccc1-n1nccn1 [Example 8, 6-acetamido-N-[(1S,2S)-2-[dideuterio-(4-fluorophenoxy)methyl]cyclopentyl]-3-(triazol-2-yl)pyridine-2-carboxamide]",5.8,> 794,15.8,8.4
,,"Nc1ccc(-c2ncccn2)c(C(=O)N[C@H]2CCC[C@@H]2COc2ccc(F)cc2)n1 [Example 12, 6-amino-N-[(1S,2S)-2-[(4-fluorophenoxy)methyl]cyclopentyl]-3-pyrimidin-2-yl-pyridine-2-carboxamide]",,,5.01,8.2
,,"O=C(N[C@H]1CCC[C@@H]1COc1ccc(F)cc1)c1nc(NC(=O)C2CC2)ccc1-n1nccn1 [Example 13, 6-(cyclopropanecarbonylamino)-N-[(1S,2S)-2-[(4-fluorophenoxy)methyl]cyclopentyl]-3-(triazol-2-yl)pyridine-2-carboxamide]",<6.0,> 1000,,7.8
0.75,1.5,"COc1cc(F)c(CN2C(=O)N(c3cnc(OC)c(OC)c3)S(=O)(=O)c3ccccc32)c(F)c1 [[^3H]-4-(2,6-difluoro-4-methoxybenzyl)-2-(5,6-dimethoxypyridin-3-yl)-2H-1,2,4-benzothiadiazin-3(4H)-one 1,1-dioxide, reference compound]",,,,
